Data on two substances can be found in patent US6967196B1, “Sulfonamide compounds and uses thereof” (Bristol-Myers Squibb Company, priority 1999, dated 2005).

This assay relates to amyloid β production in transfected H4 (human neuroglioma) cells stably expressing APP constructs. In words: In vitro cell-based assay of inhibitors of amyloid β production (ELISA). To be noted: approximately 16 hours incubation, amyloid β in medium by ELISA, read-out: ACTIVITY (IC50, inhibition of amyloid β production). An outline of the steps: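 Sandwich ELISA read-out: Aβ in conditioned medium captured via C-terminal epitope mAb, detected with N-terminus-specific rabbit polyclonal, quantified from a standard curve. Compounds 10-100 μM, ~16 h exposure. Active = ≥50% inhibition vs control without significant cytotoxicity; dose-response follows.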

Where two headings read alike, the source gives them in different places.

The IC50 is the concentration that gives 50% inhibition. On to “methyl(6R)-6-[(2,5-dichlorophenyl)-[(4-chlorophenyl)sulfonyl]-amino]-3-thioheptanoic [Example 1185]”, for which the IC50 (transfected H4 cells stably expressing APP constructs) was in the range of 25 to 50 nM. Take “tert-butyl 4-{3-[2-({[(4-chlorophenyl)sulfonyl]anilino}methyl)phenoxy]propyl}-1-piperazinecarboxylate hydrochloride [Example 1028]”: the IC50 (transfected H4 cells stably expressing APP) was > 500 nM.
